Assay results: US6924304B2, “Cell proliferation inhibitors” (Abbott Laboratories, priority 1999, dated 2005)
Structures can show the parent of a compound that is named as a salt.

Columns and labels:
[1] = system: human colon adenocarcinoma, MDR positive (HCT-15) cells; experiment: 48-hour cellular proliferation assay (sulforhodamine staining), HCT-15 cells; assay type: cell-based; details: 10^−4 M compound, HCT-15 cells (MDR positive); for inhibition at 100 µM: Homo sapiens
Procedure: (§1) Compounds of this invention were tested in a 48-hour cellular proliferation assay which uses human colon adenocarcinoma, MDR positive (HCT-15) cells, and human lung large cell carcinoma, MDR negative (NCI-H460) cells, in the 96-well microtitre format described in Skehan P., et al. New Colorimetric Cytotoxicity Assay for Anticancer Drug Screening. 1990, J. Natl. Cancer Inst. 82:1107-1112, hereby incorporated by reference. Briefly, the wells of a microtitre plate were charged sequentially with cultured cells and compounds of the invention (1.0×10^−4 to 1.0×10^−11 M in 10% DMSO prepared by dissolving compounds of the invention in DMSO and adding 11 μL of the DMSO solution to 100 μL of culture medium for a final DMSO concentration of 10%). Two of the following controls were also present in each microtitre plate: a solvent (DMSO) control without drug that yielded a 0% inhibition level and a trichloroacetic acid-treated well that yielded a 100% inhibition level. The cells were grown in culture (37° C., 5% CO2 atmosphere) for 48 hours then fixed by the addition of trichloroacetic acid. The wells were stained with sulforhodamine, washed with 1% acetic acid, and treated with 0.01 M tris buffer (100 μL) to solubilize the adherent dye. The absorbance of the dye solution was measured with a Molecular Devices SpectraMax340 plate reader. The percent inhibition values were obtained by calculating the proportional response of the experimental values to the absorbance values of the controls.

[2] = system: human lung large cell carcinoma, MDR negative (NCI-H460) cells; experiment: 48-hour cellular proliferation assay (sulforhodamine staining), NCI-H460 cells; assay type: cell-based; details: 10^−4 M compound; for inhibition at 100 µM: Homo sapiens, read-out: NCI-460 % inhibition at 10^−4 M
Procedure: as §1

3,4-dimethoxy-N-(3,4,5-trimethoxyphenyl)benzamide [Example 2]
HCT-15 % inhibition at 10^−4 M [1]: >95%
NCI-460 % inhibition at 10^−4 M [2]: 99.6%

COc1cc(NS(=O)(=O)c2ccc(OC(F)(F)F)cc2)cc(OC)c1OC [Example 3, 4-trifluoromethoxy-N-(3,4,5-trimethoxyphenyl)benzenesulfonamide]
inhibition at 100 µM [1]: 94.4%
inhibition at 100 µM [2]: 100%

COc1cc(NS(=O)(=O)c2ccc(C(F)(F)F)cc2)cc(OC)c1OC [Example 4, 4-trifluoromethyl-N-(3,4,5-trimethoxyphenyl)benzenesulfonamide]
inhibition at 100 µM [1]: 82.6%
inhibition at 100 µM [2]: 99.8%

COc1cc(NS(=O)(=O)c2ccc([N+](=O)[O-])cc2)cc(OC)c1OC [Example 5, 4-nitro-N-(3,4,5-trimethoxyphenyl)benzenesulfonamide]
inhibition at 100 µM [1]: 68.5%
inhibition at 100 µM [2]: 99.9%

COc1cc(NS(=O)(=O)c2ccc(N)cc2)cc(OC)c1OC [Example 6, 4-amino-N-(3,4,5-trimethoxyphenyl)benzenesulfonamide]
inhibition at 100 µM [1]: 54.8%
inhibition at 100 µM [2]: > 95%

COc1cc(NS(=O)(=O)c2ccc(NC(=O)CCl)cc2)cc(OC)c1OC [Example 7, 4-((2-chloroacetyl)amino)-N-(3,4,5-trimethoxyphenyl)benzenesulfonamide]
inhibition at 100 µM [1]: 96.7%
inhibition at 100 µM [2]: 89.2%

COc1cc(NS(=O)(=O)c2ccccc2[N+](=O)[O-])cc(OC)c1OC [Example 8, 2-nitro-N-(3,4,5-trimethoxyphenyl)benzenesulfonamide]
inhibition at 100 µM [1]: 53.8%
inhibition at 100 µM [2]: 50%

COc1ccc(S(=O)(=O)Nc2cc(OC)c(OC)c(OC)c2)cc1[N+](=O)[O-] [Example 9, 4-methoxy-3-nitro-N-(3,4,5-trimethoxyphenyl)benzenesulfonamide]
inhibition at 100 µM [1]: 77.2%
inhibition at 100 µM [2]: 47.4%

COc1ccc(S(=O)(=O)Nc2cc(OC)c(OC)c(OC)c2)cc1N [Example 10, 3-amino-4-methoxy-N-(3,4,5-trimethoxyphenyl)benzenesulfonamide hydrochloride]
inhibition at 100 µM [1]: 99.8%
inhibition at 100 µM [2]: 99.6%

COc1cc(NS(=O)(=O)c2c[nH]c3ccc(N)cc23)cc(OC)c1OC [Example 17, 5-amino-N-(3,4,5-trimethoxyphenyl)-1H-indole-3-sulfonamide]
inhibition at 100 µM [2]: < 9.1%

COc1cc(NS(=O)(=O)c2ccc3c(ccn3C)c2)cc(OC)c1OC [Example 19, 1-methyl-N-(3,4,5-trimethoxyphenyl)-1H-indole-5-sulfonamide]
inhibition at 100 µM [2]: 100%

COc1ccc(NS(=O)(=O)c2cc(OC)c(OC)c(OC)c2)cc1 [Example 21, 3,4,5-trimethoxy-N-(4-methoxyphenyl)benenesulfonamide]
HCT-15 % inhibition at 10^−4 M [1]: 97.8%
NCI-460 % inhibition at 10^−4 M [2]: 96.0%

COc1ccc(NC(=O)c2cc(OC)c(OC)c(OC)c2)cc1O [Example 22, N-(3-hydroxy-4-methoxyphenyl)-3,4,5-trimethoxybenzamide]
inhibition at 100 µM [1]: 99.8%
inhibition at 100 µM [2]: 99.5%

COc1cc(S(=O)(=O)Nc2ccc3c(ccn3C)c2)cc(OC)c1OC [Example 23, N-(1-methyl-1H-indol-5-yl)-3,4,5-trimethoxybenzenesulfonamide]
inhibition at 100 µM [1]: 100%
inhibition at 100 µM [2]: 100%

COc1cc(S(=O)(=O)Nc2ccc(N(C)C)cc2)cc(OC)c1OC [Example 24, N-(4-(dimethylamino)phenyl)-3,4,5-trimethoxybenzenesulfonamide]
inhibition at 100 µM [1]: 95.8%
inhibition at 100 µM [2]: 92%

COc1cc(NS(=O)(=O)c2cc(OC)c(OC)c(OC)c2)ccc1F [Example 25, N-(4-fluoro-3-methoxyphenyl)-3,4,5-trimethoxybenzenesulfonamide]
inhibition at 100 µM [1]: 62.1%
inhibition at 100 µM [2]: 57.8%

COc1cc(S(=O)(=O)Nc2ccc(OC(F)(F)F)cc2)cc(OC)c1OC [Example 26, 3,4,5-trimethoxy-N-(4-(trifluoromethoxy)phenyl)benzenesulfonamide]
inhibition at 100 µM [1]: 70.9%
inhibition at 100 µM [2]: 46.7%

COc1cc(S(=O)(=O)Nc2c(F)c(F)c(F)c(F)c2F)cc(OC)c1OC [Example 27, 3,4,5-trimethoxy-N-(2,3,4,5,6-pentafluorophenyl)benzenesulfonamide]
inhibition at 100 µM [1]: 57%
inhibition at 100 µM [2]: 61.6%

COc1ccc(NS(=O)(=O)c2cc(OC)c(OC)c(OC)c2)cc1N [Example 28, N-(3-amino-4-methoxyphenyl)-3,4,5-trimethoxybenzenesulfonamide hydrochloride]
inhibition at 100 µM [1]: 99.9%
inhibition at 100 µM [2]: 99.8%

COc1cc(S(=O)(=O)Nc2cccc3c2ccn3C)cc(OC)c1OC [Example 29, 3,4,5-trimethoxy-N-(1-methyl-1H-indol-4-yl)benzenesulfonamide]
inhibition at 100 µM [1]: 95.1%
inhibition at 100 µM [2]: 90.8%

COc1cc(S(=O)(=O)Nc2ccc3ccn(C)c3c2)cc(OC)c1OC [Example 30, 3,4,5-trimethoxy-N-(1-methyl-1H-indol-6-yl)benzenesulfonamide]
inhibition at 100 µM [1]: 94.9%
inhibition at 100 µM [2]: 83.8%

COc1cc(S(=O)(=O)Nc2ccc3[nH]ccc3c2)cc(OC)c1OC [Example 31, N-(1H-indol-5-yl)-3,4,5-trimethoxybenzenesulfonamide]
inhibition at 100 µM [1]: 98.6%
inhibition at 100 µM [2]: 95.1%

COc1cc(S(=O)(=O)Nc2ccc3c(c2)cc(C)n3C)cc(OC)c1OC [Example 32, N-(1,2-dimethyl-1H-indol-5-yl)-3,4,5-trimethoxybenzenesulfonamide]
inhibition at 100 µM [1]: 99.8%
inhibition at 100 µM [2]: 99.8%

COc1cc(S(=O)(=O)Nc2ccc3[nH]cc(Cl)c3c2)cc(OC)c1OC [Example 33, N-(3-chloro-1H-indol-5-yl)-3,4,5-trimethoxybenzenesulfonamide]
inhibition at 100 µM [1]: 92%
inhibition at 100 µM [2]: 2.8%

COc1cc(S(=O)(=O)Nc2ccc3[nH]ncc3c2)cc(OC)c1OC [Example 34, N-(1H-indazol-5-yl)-3,4,5-trimethoxybenzenesulfonamide]
inhibition at 100 µM [1]: 47.6%
inhibition at 100 µM [2]: 18.5%

COc1cc(S(=O)(=O)Nc2ccc3ncn(C)c3c2)cc(OC)c1OC [Example 35, 3,4,5-trimethoxy-N-(1-methyl-1H-benzimidazol-6-yl)benzenesulfonamide]
inhibition at 100 µM [1]: 65.2%
inhibition at 100 µM [2]: 34.5%

COc1cc(S(=O)(=O)Nc2ccc3c(c2)ncn3C)cc(OC)c1OC [Example 36, 3,4,5-trimethoxy-N-(1-methyl-1H-benzimidazol-5-yl)benzenesulfonamide]
inhibition at 100 µM [1]: 99.3%
inhibition at 100 µM [2]: 99.5%

COc1cc(S(=O)(=O)N(C)c2ccc3c(ccn3C)c2)cc(OC)c1OC [Example 37, 3,4,5-trimethoxy-N-methyl-N-(1-methyl-1H-indol-5-yl)benzenesulfonamide]
inhibition at 100 µM [1]: 99.9%
inhibition at 100 µM [2]: 100%

COc1cc(S(=O)(=O)N(CCN(C)C)c2ccc3c(ccn3C)c2)cc(OC)c1OC [Example 38, 3,4,5-trimethoxy-N-(2-(dimethylamino)ethyl)-N-(1-methyl-1H-indol-5-yl)benzenesulfonamide]
inhibition at 100 µM [1]: 87.5%
inhibition at 100 µM [2]: 81%

COc1cc(S(=O)(=O)Oc2ccc3[nH]ccc3c2)cc(OC)c1OC [Example 39, 1H-indol-5-ol, (3,4,5-trimethoxybenzenesulfonate)ester]
HCT-15 % inhibition at 10^−4 M [1]: 100.0%
NCI-460 % inhibition at 10^−4 M [2]: 100.0%
